Key:
Format in all cases: in vivo
[1] = system: barnyardgrass (Echinochloa crus-galli); assay: Test A pre-/postemergence plant response
Procedure, shortened: (§1)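 Greenhouse trial, ~10 days. Soil (loam/sand) sprayed preemergence after seeding; emerged plants (1–2 leaf, 2–10 cm) sprayed postemergence in parallel. Response = visual injury vs untreated control, 0–100.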

[2] = system: pigweed (Amaranthus retroflexus); assay: Test A pre-/postemergence plant response
Procedure, shortened: as §1

[3] = system: Italian ryegrass (Lolium multiflorum); assay: Test B pre-/postemergence plant response; conditions: Postemergence
Procedure, shortened: (§2)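 Seeds sown in loam–sand blend were treated preemergence, and plants at 2–18 cm (1- to 4-leaf stage) in peat-based medium were treated postemergence; compounds were formulated in non-phytotoxic solvent with surfactant. After 13–15 days in greenhouse, response was visually rated against controls, 0 (no effect) to 100 (complete control).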

[4] = system: blackgrass (Alopecurus myosuroides); assay: Test B pre-/postemergence plant response; conditions: for Plant response rating, Blackgrass: Postemergence
Procedure, shortened: as §2

[5] = system: downy bromegrass (Bromus tectorum); assay: Test B pre-/postemergence plant response; conditions: for Plant response rating, Bromegrass, Downy: Postemergence
Procedure, shortened: as §2

[6] = system: goosegrass (Eleusine indica); assay: Test B pre-/postemergence plant response; conditions: Postemergence
Procedure, shortened: as §2

[7] = system: large crabgrass (Digitaria sanguinalis); assay: Test B pre-/postemergence plant response; conditions: Postemergence
Procedure, shortened: as §2

[8] = system: morningglory (Ipomoea coccinea); assay: Test B pre-/postemergence plant response; conditions: Postemergence
Procedure, shortened: as §2

[9] = system: velvetleaf (Abutilon theophrasti); assay: Test B pre-/postemergence plant response; conditions: Postemergence
Procedure, shortened: as §2

[10] = system: wheat (Triticum aestivum); assay: Test B pre-/postemergence plant response; conditions: Postemergence
Procedure, shortened: as §2

[11] = system: woolly cupgrass (Eriochloa villosa); assay: Test B pre-/postemergence plant response; conditions: Postemergence
Procedure, shortened: as §2

[12] = system: yellow nutsedge (Cyperus esculentus); assay: Test B pre-/postemergence plant response; conditions: Postemergence
Procedure, shortened: as §2

[13] = Postemergence, 125 g ai/ha, 0 to 100 scale where 0 is no effect and 100 is complete control
[14] = Postemergence, 500 g ai/ha, visual injury, 0 to 100 scale (0 no effect, 100 complete control), approx. ten days
[15] = Preemergence, 125 g ai/ha, 0 to 100 scale, 0 = no effect, 100 = complete control
[16] = Preemergence, 500 g ai/ha, 0 to 100 scale, 0 = no effect, 100 = complete control
[17] = 31 g ai/ha, 0 to 100 scale (0 no effect, 100 complete control)
[18] = 125 g ai/ha, scale 0 to 100 (0 no effect, 100 complete control)
[19] = 250 g ai/ha, scale 0 to 100 (0 no effect, 100 complete control), 13 to 15 days
[20] = 62 g ai/ha, postemergence, 0 is no effect, 100 is complete control, 13 to 15 days

SMILES: O=C1CCCC(O)=C1C(=O)c1cnc(-c2ccsc2)n(C2CCOCC2)c1=O [Compound 186]
- Plant response rating, Barnyardgrass [1, 13]: 80
- Barnyardgrass plant response rating [1, 14]: 90
- Plant response rating, Barnyardgrass [1, 15]: 0
- Plant response rating, Barnyardgrass [1, 16]: 60
- Plant response rating, Pigweed [2, 13]: 100
- Pigweed plant response rating [2, 14]: 100
- Plant response rating, Pigweed [2, 15]: 50
- Plant response rating, Pigweed [2, 16]: 100
- Plant response rating, Ryegrass, Italian [3, 17]: 0
- Plant response rating, Ryegrass, Italian [3, 18]: 0
- Plant response rating, Ryegrass, Italian [3, 19]: 30
- Blackgrass plant response rating (0 to 100 scale) [4, 20]: 0
- Plant response rating, Blackgrass [4, 17]: 0
- Plant response rating, Blackgrass [4, 18]: 5
- Plant response rating, Blackgrass [4, 19]: 20
- Bromegrass, Downy plant response rating (0 to 100 scale) [5, 20]: 25
- Plant response rating, Bromegrass, Downy [5, 17]: 5
- Plant response rating, Bromegrass, Downy [5, 18]: 30
- Plant response rating, Bromegrass, Downy [5, 19]: 50
- Plant response rating, Goosegrass [6, 17]: 85
- Plant response rating, Goosegrass [6, 18]: 98
- Plant response rating, Goosegrass [6, 19]: 100
- Plant response rating, Crabgrass, Large [7, 17]: 80
- Plant response rating, Crabgrass, Large [7, 18]: 85
- Plant response rating, Crabgrass, Large [7, 19]: 95
- Plant response rating, Morningglory [8, 17]: 95
- Plant response rating, Morningglory [8, 18]: 100
- Plant response rating, Morningglory [8, 19]: 100
- Plant response rating, Velvetleaf [9, 17]: 70
- Plant response rating, Velvetleaf [9, 18]: 100
- Plant response rating, Velvetleaf [9, 19]: 100
- Plant response rating, Wheat [10, 17]: 0
- Plant response rating, Wheat [10, 18]: 0
- Plant response rating, Wheat [10, 19]: 5
- Plant response rating, Cupgrass, Woolly [11, 17]: 70
- Plant response rating, Cupgrass, Woolly [11, 18]: 80
- Plant response rating, Cupgrass, Woolly [11, 19]: 85
- Plant response rating, Nutsedge, Yellow [12, 17]: 65
- Plant response rating, Nutsedge, Yellow [12, 18]: 75
- Plant response rating, Nutsedge, Yellow [12, 19]: 80
